For test [1], the target named is HDAC8 enzyme (recombinant GST-HDAC8) (Homo sapiens (Human), UniProt Q9BY41). In words: In vitro HDAC assay (BIOMOL fluorescent-based HDAC activity assay), HDAC8. In kind it is biochemical.
Protocol: (§1) The assay has been carried out in 96 well format and the BIOMOL fluorescent-based HDAC activity assay has been applied. […] Flur de lys Developer was added and the reaction was incubated for 10 min. Briefly, deacetylation of the substrate sensitizes it to the developer, which then generates a fluorophore (symbol). The fluorophore is excited with 360 nm light and the emitted light (460 nm) is detected on a fluorometric plate reader (Tecan Ultra Microplate detection system, Tecan Group Ltd.).
(§2) The analytical software, Prism 3.0 has been used to generate IC50 from a series of data.
Test [2] deals with HDAC1 enzyme (recombinant GST-HDAC1) (Homo sapiens (Human), UniProt Q13547). In words: In vitro HDAC assay (BIOMOL fluorescent-based HDAC activity assay), HDAC1. In kind it is biochemical.
Protocol: as §1, §2

Read-outs that look alike come from different tables or passages of the source.

Sequence of HDAC8 enzyme (recombinant GST-HDAC8) (Q9BY41 whole entry): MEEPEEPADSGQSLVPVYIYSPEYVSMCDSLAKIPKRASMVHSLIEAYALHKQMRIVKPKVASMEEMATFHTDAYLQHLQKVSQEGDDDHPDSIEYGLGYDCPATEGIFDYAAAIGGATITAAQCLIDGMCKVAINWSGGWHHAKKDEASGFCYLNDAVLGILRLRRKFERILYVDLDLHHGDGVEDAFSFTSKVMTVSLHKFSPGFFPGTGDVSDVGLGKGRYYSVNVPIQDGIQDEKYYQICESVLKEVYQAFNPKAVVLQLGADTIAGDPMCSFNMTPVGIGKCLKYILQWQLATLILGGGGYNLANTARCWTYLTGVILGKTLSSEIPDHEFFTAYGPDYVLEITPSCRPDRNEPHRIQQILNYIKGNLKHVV
Sequence of HDAC1 enzyme (recombinant GST-HDAC1) (Q13547 whole entry): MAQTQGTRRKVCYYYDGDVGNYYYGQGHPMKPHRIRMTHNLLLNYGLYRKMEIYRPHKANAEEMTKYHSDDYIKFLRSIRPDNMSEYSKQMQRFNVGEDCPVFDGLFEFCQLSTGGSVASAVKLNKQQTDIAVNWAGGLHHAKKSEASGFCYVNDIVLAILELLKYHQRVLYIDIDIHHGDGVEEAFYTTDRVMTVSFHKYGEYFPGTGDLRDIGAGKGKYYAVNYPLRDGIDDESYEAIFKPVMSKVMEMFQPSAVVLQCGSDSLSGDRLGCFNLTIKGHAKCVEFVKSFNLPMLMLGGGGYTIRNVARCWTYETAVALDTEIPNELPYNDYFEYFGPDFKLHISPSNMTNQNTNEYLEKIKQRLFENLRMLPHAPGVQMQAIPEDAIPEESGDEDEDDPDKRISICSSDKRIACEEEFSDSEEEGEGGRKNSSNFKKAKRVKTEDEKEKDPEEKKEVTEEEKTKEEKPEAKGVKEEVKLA

The term IC50 denotes the concentration that gives 50% inhibition. For `CCN(CC)CCn1c(CCc2ccccc2)nc2cc(/C=C/C(=O)NO)ccc21` [Compound 66, N-Hydroxy-3-[1-(2-diethylamino-ethyl)-2-phenethyl-1H-benzimidazol-5-yl]-acrylamide], the IC50 in test [1] (read-out: HDAC8 Enzyme Activity IC50) stood at 255 nM; in test [2] (read-out: HDAC1 Enzyme Activity IC50) it was 72 nM.

Consider `O=C(/C=C/c1ccc2c(c1)nc(CCc1ccccc1)n2CCN1CCCCC1)NO` [Compound 67, N-Hydroxy-3-[2-phenethyl-1-(piperidin-1-yl-ethyl)-1H-benzimidazol-5-yl]-acrylamide], for which the concentration for half-maximal inhibition (IC50) stood at 254 nM in test [1] (Free base, read-out: IC50 (HDAC8)) and 37 nM in test [2] (Free base, read-out: IC50 (HDAC1)).
